Results as given in a melting point compilation (Tetko et al.; mined from patent text by program, amines drawn as free bases though some values may be those of a salt).

Row | SMILES | melting point
1 | COc1ccc(-c2ccc(C=O)c3occc23)cc1 | 104 to 105 °C
2 | CCSC(=N)Nc1ccc(CCN(C)Cc2ccccc2)cc1 | 136 to 137 °C
3 | CCOC(=O)C1CCc2cc([N+](=O)[O-])ccc2O1 (stereo unspecified) | 80.8 °C
4 | COC(=O)C=C(C)NCc1ccccc1 | 36 to 37.5 °C
5 | Nc1ncnc2c1c(C#CCO)nn2Cc1oc2ccccc2c(=O)c1-c1ccccc1 | 171 to 173 °C
6 | O=C(CC(C(=O)O)C1CCCCC1)Nc1cccc(/C=C/c2nc(C3CCC3)cs2)c1 (stereo unspecified) | 205 to 207 °C
7 | COC(=O)c1nc(Br)c(F)c(N)c1Cl | 119 to 120 °C
8 | COc1ccc(NN=C(Sc2c(C)cccc2C)C(C)=O)cc1 | 107 to 109 °C
9 | CS(=O)(=O)Nc1c(CCCCCCC(=O)O)ccc2ccccc12 | 122 to 127 °C
10 | CCCCC(CC)C(=O)NC(=S)Nc1nc(-c2ccc3c(c2)CCCC3)cs1 (stereo unspecified) | 178 to 179 °C
11 | NC(=O)c1cccc(OCCCCCCBr)c1 | 115 to 117 °C
12 | CC1(C)C(N)C(C)(C)S1(=O)=O | 104 to 106 °C
13 | CCOc1ccc(F)cc1C(=O)c1sc2ncc(C#N)cc2c1N | 196 °C
14 | COC(=O)C1=NC2=COc3cc(C)ccc3N2C1C(=O)O (stereo unspecified) | 176 to 177 °C
15 | COC(=N)Nc1nc(OC)cc(OC)n1 | 91 to 95 °C
16 | CCOC(=O)C(Cc1ccc(CN(CC)CC)cc1)NC(=O)OC(C)(C)C (stereo unspecified) | 56 °C
17 | COC(=O)C(=O)c1cc2cc(C#N)ccc2o1 | 196 to 199 °C
18 | Oc1cccc(C2CN=C(c3ccccn3)O2)c1 (stereo unspecified) | 139 to 141 °C
19 | CC(=O)N(C)c1ccc2c(c1)C(c1ccccc1F)=NCc1cnc(C)n1-2 | 217 to 223 °C
20 | CCc1cc(C(N)=O)nn1C | 170 to 172 °C
21 | CC(C)N(CCn1c(CO)nc2c(N)nc3ccccc3c21)C(N)=O | > 240 °C
22 | Cc1cc(-c2cc(C(F)F)n3ncc(C(=O)O)c3n2)ccc1Cl | 238 °C
23 | OCc1nc(/C=C/c2ccccc2)ns1 | 119 to 120 °C
24 | CNc1nc(Cc2ccc(OC)c(OC)c2)nc2sc(C#N)c(C)c12 | 161 to 163 °C

Continued, values first:

Row | melting point | SMILES
25 | 165 to 166 °C | Cc1cccc2c3c(n(Cc4ccccc4)c12)CCCC3=O
26 | 132 to 133 °C | CCOC(=O)c1c(CCl)nc2sc3c(c2c1-c1ccc(OC)c(OC)c1)CCN(C(=O)c1ccc(Cl)cc1)C3
27 | 142 °C | O=C(Nc1ccccn1)Nc1cccc2c1C1CCCCN1C2=O (stereo unspecified)
28 | 178 to 179 °C | CN(C)C(=O)CNc1cc(-c2ccccc2)nc(-c2ccc(C(F)(F)F)cc2)n1
29 | 227 to 231 °C | O=C(NCc1c[nH]c(=S)n1[C@H]1CCc2c(F)cc(F)cc2C1)c1ccco1
30 | 238 to 240 °C | N#Cc1ccsc1C1=CC(=O)Nc2cc(-c3ccccc3F)ccc2N1
31 | 67 to 68 °C | O=C(CCCCC1CCN(Cc2ccccc2)CC1)c1ccc(F)cc1
32 | 200 to 201 °C | CN(c1cccc2cc(-c3nc(CCC(=O)O)cs3)[nH]c12)S(=O)(=O)c1cccs1
33 | 74 to 76 °C | C=CCN(CC=C)C(=O)C1=C(C(=O)Nc2cc(OC3CCCC3)c(Cl)cc2F)CCCC1
34 | 202 to 203 °C | COc1ccc(N2C(=O)[C@@H](N3C(=O)c4ccccc4C3=O)[C@H]2/C=C/c2ccccc2)cc1 (relative stereo)
35 | 120 to 124 °C | COc1ccc(-c2cc(F)c3c(Cl)c(O)ccc3c2)cc1
36 | 241 to 242 °C | CCCCC1N=C(Cl)/C(=C2\C(=O)Nc3ccccc32)N1Cc1ccc(C(=O)O)cc1 (stereo unspecified)
37 | 162 to 164 °C | COc1ccc2[nH]c(SCc3ncc(C)c(N4CCOCC4)c3Cl)nc2c1
38 | 178 to 180 °C | O=C1CCC(N2Cc3c(OCc4ccc(CN5CCCC5C(F)(F)F)cc4)cccc3C2=O)C(=O)N1 (stereo unspecified)
39 | 166 to 168 °C | COc1cccc(CNc2ncnc3c2sc2nc(N4CCCC4)c4c(c23)CC(C)(C)OC4)c1OC
40 | 181 to 182 °C | COc1ccc(Nc2ncc3ccc(=O)n(C4CCCC4)c3n2)cn1
41 | > 250 °C | CN1C(=O)C2(COc3cc4c(cc32)OCCO4)c2c(-c3cc(O)[nH]n3)cccc21 (stereo unspecified)
